Assay results taken from ChEMBL document CHEMBL1201862, “PubChem BioAssay data set” (2004).
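The compound was tested at five concentrations on cells cultured in 96-well plates, with a 48-hour exposure period. Here, GI50 denotes the concentration required for 50% inhibition of growth.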 Active and inactive are the calls of the source. Cut-off read from the data, not from the text of the source: active = GI50 up to about 1.1 µM and inactive = higher.

Columns and labels:
Assay in all cases: DTP human tumour cell line panel, 48 h
KM-20L2 = tested on: KM-20L2
SNB-78 = tested on: SNB-78
RXF 631 = tested on: RXF 631
DMS-114 = tested on: DMS-114
XF498 = tested on: XF498
HOP-18 = tested on: HOP-18
T47D = tested on: T47D
Hs-578T = tested on: Hs-578T
MDA-N = tested on: MDA-N

| Structure (SMILES) | GI50 (KM-20L2) | GI50 (SNB-78) | GI50 (RXF 631) | GI50 (DMS-114) | GI50 (XF498) | GI50 (HOP-18) | GI50 (T47D) | GI50 (Hs-578T) | GI50 (MDA-N) |
| --- | --- | --- | --- | --- | --- | --- | --- | --- | --- |
| COc1nc(NC2OCC(OC(C)=O)C(OC(C)=O)C2OC(C)=O)c(/N=C(\C)C(C)=O)c(=O)n1C (stereo not given) | > 100 µM (inactive) | > 100 µM (inactive) | > 100 µM (inactive) | > 100 µM (inactive) | > 100 µM (inactive) | > 100 µM (inactive) | – | – | – |
| O=c1cc(/C=C/c2ccccc2)c2ccc(O/C(=C\c3ccccc3)c3nc4ccccc4c(=O)o3)cc2o1 | 31.5 µM (inactive) | 19.5 µM (inactive) | 28.1 µM (inactive) | 15.1 µM (inactive) | 14.9 µM (inactive) | – | – | – | – |
| CS(=O)(=O)OCCN(CCOS(C)(=O)=O)c1ccc(C=O)cc1 | 3.28 µM (inactive) | 27.2 µM (inactive) | – | 8.05 µM (inactive) | 1.97 µM (inactive) | 9.16 µM (inactive) | 5.92 µM (inactive) | 14.3 µM (inactive) | 8.95 µM (inactive) |
| CN1C(=O)CC2(C)c3cc(C=O)ccc3N(C)C12 (stereo not given) | > 100 µM (inactive) | > 100 µM (inactive) | > 100 µM (inactive) | > 100 µM (inactive) | > 100 µM (inactive) | > 100 µM (inactive) | – | – | – |
| COC(=O)C1CCC(N2C(=O)CCC2C(=O)OC)=N1 (stereo not given) | > 100 µM (inactive) | > 100 µM (inactive) | > 100 µM (inactive) | – | > 100 µM (inactive) | > 100 µM (inactive) | – | – | – |
| COC(=O)C(=O)C(C(=O)C(=O)Nc1ccc(Cl)cc1C)c1nc2ccc(C(=O)c3ccccc3)cc2nc1O (stereo not given) | > 100 µM (inactive) | > 100 µM (inactive) | > 100 µM (inactive) | 36 µM (inactive) | – | > 100 µM (inactive) | – | – | – |
| CC(=O)c1ccc(NC(=O)C(=O)CC(=O)c2sc(-n3nc(-c4ccccc4)cc3-c3ccccc3)nc2C)cc1 | > 100 µM (inactive) | > 100 µM (inactive) | > 100 µM (inactive) | > 100 µM (inactive) | – | – | – | – | – |
| CC(=O)OCC1OC(n2c(-c3ccc(C)cc3)cc(-c3ccccc3)c(C#N)c2=O)C(OC(C)=O)C(OC(C)=O)C1OC(C)=O (stereo not given) | > 100 µM (inactive) | > 100 µM (inactive) | > 100 µM (inactive) | > 100 µM (inactive) | 86.9 µM (inactive) | – | – | – | – |
| O=C1c2ccccc2C(=O)C2C1C1C(=O)c3ccccc3C(=O)C21 (stereo not given) | > 100 µM (inactive) | – | > 100 µM (inactive) | > 100 µM (inactive) | – | 8.69 µM (inactive) | – | – | – |
| Nc1nc(=O)[nH]c2c1cnn2Cc1ccccc1 | 1.62 µM (inactive) | 1.46 µM (inactive) | > 100 µM (inactive) | > 100 µM (inactive) | > 100 µM (inactive) | > 100 µM (inactive) | – | – | – |
| O=C(N/C(=C\c1ccccc1Cl)c1nc2ccccc2[nH]1)c1ccccc1 | 22.8 µM (inactive) | 45.6 µM (inactive) | 26.5 µM (inactive) | 35 µM (inactive) | 23.8 µM (inactive) | – | – | – | – |
| Cc1ccc(-c2cc(=O)c3cc(C)c(C)c(C(=O)O)c3o2)cc1C | > 100 µM (inactive) | > 100 µM (inactive) | > 100 µM (inactive) | > 100 µM (inactive) | – | > 100 µM (inactive) | – | – | – |
| Cc1nc2nn(Cc3ccccc3)cc2c(=O)o1 | > 100 µM (inactive) | > 100 µM (inactive) | > 100 µM (inactive) | > 100 µM (inactive) | 74.5 µM (inactive) | – | – | – | – |
| CC(C)(C)NNC(=O)/C(=C/c1ccc(Oc2ccc(Cl)c(Cl)c2)cc1)NC(=O)c1ccccc1 | 95.3 µM (inactive) | > 100 µM (inactive) | 34 µM (inactive) | 18.5 µM (inactive) | > 100 µM (inactive) | > 100 µM (inactive) | – | – | – |
| O=C(N/N=C/c1ccccc1O)N/N=C/c1ccccc1O | > 100 µM (inactive) | > 100 µM (inactive) | > 100 µM (inactive) | > 100 µM (inactive) | > 100 µM (inactive) | > 100 µM (inactive) | – | – | – |
| COC1CCC2C(NS(=O)(=O)c3ccc(C)cc3)CCCC2O1.Cc1ccc(S(=O)(=O)NC(C)(C)C=O)cc1 (stereo not given) | 32.6 µM (inactive) | > 34.5 µM (inactive) | 10.2 µM (inactive) | 9.31 µM (inactive) | – | – | – | – | – |
| O=c1[nH]c2c(O)cccc2c2cc3c(c(O)c12)OCO3 [NARCIPRIMINE] | 12.8 µM (inactive) | 21.3 µM (inactive) | – | 19.1 µM (inactive) | 15.6 µM (inactive) | 0.0524 µM (active) | – | – | – |
